Where two headings read alike, the source gives them in different places.
Test: LC/MS retention time of standard compounds and sponge extract (in-house platform)
Type: physicochemical
Set-up: RT (retention time): unit not given here
Method: Total 22 compounds and 9 PNPA standards covering a long time-range were purchased as reference standards (Table 1). Each standard compound was experimentally measured with our in-house LC/MS platform with conditions in Supporting Table 1, available as supplementary data at Bioinformatics Advances online.
The resulting extract was dissolved in methanol and subjected to LC/MS analysis with conditions in Supporting Table 1, available as supplementary data at Bioinformatics Advances online, for metabolite profiling.

[1] = purchased PNPA standard, in-house LC/MS platform, conditions in Supporting Table 1 (not shown), retention time related to hydrophobic/hydrophilic substructures, unit not given

| Compound | RT (retention time) [1] | further results |
| --- | --- | --- |
| α-Amanitin | 3.41 |  |
| Gramicidin A | 9.19 |  |
| [Arg8]-Vasopressin | 3.11 |  |
| C=CC/C(=N/OS(=O)(=O)O)S[C@@H]1O[C@H](CO)[C@@H](O)[C@H](O)[C@H]1O [2-Propenyl glucosinolate] |  | RT (retention time of the reference compound) (LC/MS, in-house platform, reference compound used for retention order comparison, sheet COCONUT): 1.74 min |
| Bacitracin |  | RT (retention time): 4.67 |
| C/C(=C\c1csc(C)n1)[C@@H]1C[C@@H]2O[C@]2(C)CCC[C@H](C)[C@H](O)[C@@H](C)C(=O)C(C)(C)[C@@H](O)CC(=O)O1 [Epothilone B] | 7.67 |  |
| Jaspamide [Measured compound] |  | Retention order of the measured compound against reference compound 2-Propenyl glucosinolate (binary 1/0) (column 'Measured compound', reference RT 1.74, observed order, no key for 1/0 printed, sheet COCONUT): 1; RT (retention time) of measured compound (compound detected in methanol extract of marine sponge Jaspis splendens, same in-house LC/MS conditions (Supporting Table 1), annotated as Jaspamide via retention order and MS/MS, unit not given): 8.45 |

Reference: article PMC12643230, “Retention order prediction of peptides containing non-proteinogenic amino acids” (Bioinformatics Advances, 2025)
